Reference: patent publication US9695163B2, “Thiazole orexin receptor antagonists” (MERCK SHARP & DOHME CORP., priority 2013, dated 2017)

Experiments:
[1] = target: human orexin-2 receptor (hOX2R) (Homo sapiens (Human), UniProt O43614); experiment: FLIPR Ca2+ Flux Assay, CHO cells expressing human orexin-2 receptor; type: cell-based; conditions: agonist Ala-6,12 human orexin-A 70 pM
Description: Briefly, for intracellular calcium measurements, Chinese hamster ovary (CHO) cells expressing the orexin-1 receptor (e.g., rat or human) or the orexin-2 receptor (e.g., rat or human), are grown in Iscove's modified DMEM containing 2 mM L-glutamine, […], 1% hypoxanthine-thymidine supplement, 100 U/ml penicillin, 100 μg/ml streptomycin and 10% heat-inactivated fetal calf serum (FCS). The cells are seeded at approximately 20,000 cells per well into 384-well clear bottom sterile plates coated with poly-D-lysine. The seeded plates are incubated overnight at 37° C. and 5% CO2. Human ala-6,12 orexin-A can be used as the agonist and prepared as a 1 mM stock solution in 1% bovine serum albumin (BSA) and diluted in assay buffer (HBSS containing 20 mM HEPES, 0.1% BSA and 2.5 mM probenecid, pH7.4) for use in the assay at a final concentration of 70 pM. Test compounds are prepared as 10 mM stock solution in DMSO, then diluted in 384-well plates, first in DMSO, then in assay buffer. On the day of the assay, cells are washed 3 times with 100 μl assay buffer and then incubated for 60 minutes (37° C., 5% CO2) in 60 μl assay buffer containing 1 μM Fluo-4 AM ester, 0.02% pluronic acid, and 1% BSA. The dye loading solution is then aspirated and cells are washed 3 times with 100 μl assay buffer. 30 μl of that same buffer is left in each well. Within the Fluorescent Imaging Plate Reader (FLIPR, Molecular Devices), test compounds are added to the plate in a volume of 25 μl, incubated for 5 minutes, and then 25 μl of agonist is added. Fluorescence is measured for each well at 1 second intervals for 5 minutes, and the height of each fluorescence peak is compared to the height of the fluorescence peak induced by 70 pM of agonist ala-6,12 orexin-A with buffer in place of test compound. IC50 value for the test compound is determined to be the concentration of compound needed to inhibit 50% of the agonist response. Alternatively, compound potency can be assessed using a radioligand binding assay (described in Bergman et. al., Bioorg. Med. Chem. Lett. 2008, 18:1425-1430) in which the inhibition constant (Ki) is determined in membranes prepared from CHO cells expressing either the OX1 or OX2 receptor. The intrinsic orexin receptor antagonist activity of a compound of the present invention may be determined by these assays. […]

[2] = target: human orexin-1 receptor (hOX1R) (Homo sapiens (Human), UniProt O43613); experiment: FLIPR Ca2+ Flux Assay, CHO cells expressing human orexin-1 receptor; type: cell-based; conditions: agonist Ala-6,12 human orexin-A 70 pM
Chain of human orexin-1 receptor (hOX1R) (O43613 whole entry): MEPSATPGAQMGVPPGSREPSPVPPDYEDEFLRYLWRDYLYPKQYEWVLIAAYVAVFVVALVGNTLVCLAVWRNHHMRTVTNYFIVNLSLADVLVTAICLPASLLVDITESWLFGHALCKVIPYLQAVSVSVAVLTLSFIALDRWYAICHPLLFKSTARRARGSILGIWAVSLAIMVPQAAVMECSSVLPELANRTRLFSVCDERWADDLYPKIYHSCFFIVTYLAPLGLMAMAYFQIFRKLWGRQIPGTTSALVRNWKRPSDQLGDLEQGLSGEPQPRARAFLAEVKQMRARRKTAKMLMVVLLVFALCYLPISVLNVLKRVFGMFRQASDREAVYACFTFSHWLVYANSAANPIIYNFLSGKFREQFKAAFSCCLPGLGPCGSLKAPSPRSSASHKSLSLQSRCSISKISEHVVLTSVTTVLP
Text: The utility of the compounds in accordance with the present invention as orexin receptor OX1R and/or OX2R antagonists may be readily determined without undue experimentation by methodology well known in the art, including the “FLIPR Ca^2+ Flux Assay” (Okumura et al., Biochem. Biophys. Res. Comm. 2001, 280:976-981). Briefly, for intracellular calcium measurements, Chinese hamster ovary (CHO) cells expressing the orexin-1 receptor (e.g., rat or human) or the orexin-2 receptor (e.g., rat or human), are grown in Iscove's modified DMEM containing 2 mM L-glutamine, […], 1% hypoxanthine-thymidine supplement, 100 U/ml penicillin, 100 μg/ml streptomycin and 10% heat-inactivated fetal calf serum (FCS). The cells are seeded at approximately 20,000 cells per well into 384-well clear bottom sterile plates coated with poly-D-lysine. The seeded plates are incubated overnight at 37° C. and 5% CO2. Human ala-6,12 orexin-A can be used as the agonist and prepared as a 1 mM stock solution in 1% bovine serum albumin (BSA) and diluted in assay buffer (HBSS containing 20 mM HEPES, 0.1% BSA and 2.5 mM probenecid, pH7.4) for use in the assay at a final concentration of 70 pM. Test compounds are prepared as 10 mM stock solution in DMSO, then diluted in 384-well plates, first in DMSO, then in assay buffer. On the day of the assay, cells are washed 3 times with 100 μl assay buffer and then incubated for 60 minutes (37° C., 5% CO2) in 60 μl assay buffer containing 1 μM Fluo-4 AM ester, 0.02% pluronic acid, and 1% BSA. The dye loading solution is then aspirated and cells are washed 3 times with 100 μl assay buffer. 30 μl of that same buffer is left in each well. Within the Fluorescent Imaging Plate Reader (FLIPR, Molecular Devices), test compounds are added to the plate in a volume of 25 μl, incubated for 5 minutes, and then 25 μl of agonist is added. Fluorescence is measured for each well at 1 second intervals for 5 minutes, and the height of each fluorescence peak is compared to the height of the fluorescence peak induced by 70 pM of agonist ala-6,12 orexin-A with buffer in place of test compound. IC50 value for the test compound is determined to be the concentration of compound needed to inhibit 50% of the agonist response. Alternatively, compound potency can be assessed using a radioligand binding assay (described in Bergman et. al., Bioorg. Med. Chem. Lett. 2008, 18:1425-1430) in which the inhibition constant (Ki) is determined in membranes prepared from CHO cells expressing either the OX1 or OX2 receptor. The intrinsic orexin receptor antagonist activity of a compound of the present invention may be determined by these assays.

Chain of human orexin-2 receptor (hOX2R) (O43614 whole entry): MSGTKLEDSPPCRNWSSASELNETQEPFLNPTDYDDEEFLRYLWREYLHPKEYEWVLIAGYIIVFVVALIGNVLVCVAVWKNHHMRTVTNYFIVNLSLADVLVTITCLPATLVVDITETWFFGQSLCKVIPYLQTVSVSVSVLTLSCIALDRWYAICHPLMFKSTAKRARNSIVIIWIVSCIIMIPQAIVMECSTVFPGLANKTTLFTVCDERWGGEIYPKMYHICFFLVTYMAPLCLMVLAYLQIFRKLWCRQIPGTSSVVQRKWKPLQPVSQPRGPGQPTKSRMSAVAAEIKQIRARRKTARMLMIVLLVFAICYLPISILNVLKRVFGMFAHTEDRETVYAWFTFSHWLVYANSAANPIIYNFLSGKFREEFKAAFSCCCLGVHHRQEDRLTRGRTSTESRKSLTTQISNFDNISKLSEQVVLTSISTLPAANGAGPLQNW

SMILES | IC50 [1] [nM] | IC50 [2] [nM]
C[C@@H]1CC[C@@H](c2csc(C(C)(C)O)n2)CN1C(=O)c1ccccc1-n1ncnn1 [Example 29, (2-(2H-Tetrazol-2-yl)phenyl)((2R,5R)-5-(2-(2-hydroxypropan-2-yl)thiazol-4-yl)-2-methylpiperidin-1-yl)methanone] | 15 | –
C[C@@H]1CC[C@@H](c2csc(C(C)(C)O)n2)CN1C(=O)c1cscc1-c1ncccn1 [Example 32, ((2R,5R)-5-(2-(2-hydroxypropan-2-yl)thiazol-4-yl)-2-methylpiperidin-1-yl)(4-(pyrimidin-2-yl)thiophen-3-yl)methanone] | 130 | > 10000
C[C@@H]1CC[C@@H](c2csc(C(C)(C)O)n2)CN1C(=O)c1ccccc1C1(C#N)CC1 [Example 30, 1-(2-((2R,5R)-5-(2-(2-hydroxypropan-2-yl)thiazol-4-yl)-2-methylpiperidine-1-carbonyl)phenyl)cyclopropanecarbonitrile] | 13 | 1200
C[C@@H]1CC[C@@H](c2nc(C(C)(C)O)cs2)CN1C(=O)c1ccc(F)cc1-n1nccn1 [Example 13, (4-fluoro-2-(2H-1,2,3-triazol-2-yl)phenyl)((2R,5R)-5-(4-(2-hydroxypropan-2-yl)thiazol-2-yl)-2-methylpiperidin-1-yl)methanone] | 19 | 2250
C[C@@H]1CC[C@@H](c2nc([C@H](O)C(F)(F)F)cs2)CN1C(=O)c1ccccc1-n1nccn1 [Example 6, (2-(2H-1,2,3-triazol-2-yl)phenyl)((2R,5R)-2-methyl-5-(4-((S)-2,2,2-trifluoro-1-hydroxyethyl)thiazol-2-yl)piperidin-1-yl)methanone] | 165 | 10000
C[C@@H]1CC[C@@H](c2nc(C(C)(C)O)cs2)CN1C(=O)c1ccccc1-n1nccn1 [Example 5] | 17 | 2250
C[C@@H]1CC[C@@H](c2nc(C(C)(C)O)cs2)CN1C(=O)c1ccccc1C1(C#N)CC1 [Example 11, 1-(2-((2R,5R)-5-(4-(2-Hydroxypropan-2-yl)thiazol-2-yl)-2-methylpiperidine-1-carbonyl)phenyl)cyclopropanecarbonitrile] | 15 | 950
C[C@@H]1CC[C@@H](c2csc(C(C)(C)O)n2)CN1C(=O)c1ccsc1-n1nccn1 [Example 37, (2-(2H-1,2,3-Triazol-2-yl)thiophen-3-yl)((2R,5R)-5-(2-(2-hydroxypropan-2-yl)thiazol-4-yl)-2-methylpiperidin-1-yl)methanone] | 16 | 7200
C[C@@H]1CC[C@@H](c2nc(C(C)(C)O)cs2)CN1C(=O)c1cscc1-c1ncccn1 [Example 16, ((2R,5R)-5-(4-(2-hydroxypropan-2-yl)thiazol-2-yl)-2-methylpiperidin-1-yl)(4-(pyrimidin-2-yl)thiophen-3-yl)methanone] | 25 | 1000
Cc1sc([C@@H]2CC[C@@H](C)N(C(=O)c3ccccc3-n3nccn3)C2)nc1C(C)(C)O [Example 19, (2-(2H-1,2,3-Triazol-2-yl)phenyl)((2R,5R)-5-(4-(2-hydroxypropan-2-yl)-5-methylthiazol-2-yl)-2-methylpiperidin-1-yl)methanone] | 14 | 330
Cc1sc([C@@H]2CC[C@@H](C)N(C(=O)c3ccsc3-n3nccn3)C2)nc1C(C)(C)O [Example 20, (2-(2H-1,2,3-triazol-2-yl)thiophen-3-yl)((2R,5R)-5-(4-(2-hydroxypropan-2-yl)-5-methylthiazol-2-yl)-2-methylpiperidin-1-yl)methanone] | 12 | 970
C[C@@H]1CC[C@@H](c2nc(C(C)(C)O)cs2)CN1C(=O)c1ccccc1-c1ncccn1 [Example 17, ((2R,5R)-5-(4-(2-Hydroxypropan-2-yl)thiazol-2-yl)-2-methylpiperidin-1-yl)(2-(pyrimidin-2-yl)phenyl)methanone] | 29 | 5470
CCOC(=O)c1cnc([C@@H]2CC[C@@H](C)N(C(=O)c3ccccc3-n3nccn3)C2)s1 [Example 1, Ethyl 2-((3R,6R)-1-(2-(2H-1,2,3-triazol-2-yl)benzoyl)-6-methylpiperidin-3-yl)thiazole-5-carboxylate] | 1510 | > 10000
Cc1sc([C@@H]2CC[C@@H](C)N(C(=O)c3ccc(F)cc3-n3nccn3)C2)nc1C(C)(C)O [Example 22, (4-fluoro-2-(2H-1,2,3-triazol-2-yl)phenyl)((2R,5R)-5-(4-(2-hydroxypropan-2-yl)-5-methylthiazol-2-yl)-2-methylpiperidin-1-yl)methanone] | 20 | 930
Cc1sc([C@@H]2CC[C@@H](C)N(C(=O)c3ccccc3CS(C)(=O)=O)C2)nc1C(C)(C)O [Example 26, ((2R,5R)-5-(4-(2-Hydroxypropan-2-yl)-5-methylthiazol-2-yl)-2-methylpiperidin-1-yl)(2-((methylsulfonyl)methyl)phenyl)methanone] | 32 | > 10000
Cc1sc([C@@H]2CC[C@@H](C)N(C(=O)c3ccccc3-c3ncccn3)C2)nc1C(C)(C)O [Example 23, ((2R,5R)-5-(4-(2-Hydroxypropan-2-yl)-5-methylthiazol-2-yl)-2-methylpiperidin-1-yl)(2-(pyrimidin-2-yl)phenyl)methanone] | 27 | 600
Cc1sc([C@@H]2CC[C@@H](C)N(C(=O)c3cscc3-n3nccn3)C2)nc1C(C)(C)O [Example 21, (4-(2H-1,2,3-triazol-2-yl)thiophen-3-yl)((2R,5R)-5-(4-(2-hydroxypropan-2-yl)-5-methylthiazol-2-yl)-2-methylpiperidin-1-yl)methanone] | 30 | 2800
C[C@@H]1CC[C@@H](c2csc(C(C)(C)O)n2)CN1C(=O)c1cscc1-n1nccn1 [Example 35, (4-(2H-1,2,3-triazol-2-yl)thiophen-3-yl)((2R,5R)-5-(2-(2-hydroxypropan-2-yl)thiazol-4-yl)-2-methylpiperidin-1-yl)methanone] | 14 | > 10000
C[C@@H]1CC[C@@H](c2nc([C@@H](O)C(F)(F)F)cs2)CN1C(=O)c1ccccc1-n1nccn1 [Example 7, (2-(2H-1,2,3-triazol-2-yl)phenyl)((2R,5R)-2-methyl-5-(4-((R)-2,2,2-trifluoro-1-hydroxyethyl)thiazol-2-yl)piperidin-1-yl)methanone] | 15 | 360
Cc1sc([C@@H]2CC[C@@H](C)N(C(=O)c3ccccc3C3(C#N)CC3)C2)nc1C(C)(C)O [Example 25, 1-(2-((2R,5R)-5-(4-(2-Hydroxypropan-2-yl)-5-methylthiazol-2-yl)-2-methylpiperidine-1-carbonyl)phenyl)cyclopropanecarbonitrile] | 12 | 240
